Earlier results as cited in patent US20090181849A1, “Agricultural chemical containing top dressing composition and process for use thereof” (priority 2007, published 2009).

Key:
[1] = test system: S. homoeocarpa; settings: bent grass, blend of Cato:Crenshaw (50:50); disease pressure high
[2] = test system: curvularia fungus; settings: Kentucky bluegrass plants growing in sand; sprayed and fertilized in separate applications; not on bent grass or Bermuda grass plants

## CSC(=O)c1cccc2nnsc12 [ASM, acibenzolar-5-methyl]
[1]
  reduction of number of S. homoeocarpa infection centers: 38%

## O=[N+]([O-])NC1=NCCN1Cc1ccc(Cl)nc1 [imidacloprid]
[2]
  control of curvularia fungus: successful control
